Measured values: patent EP0444546B1, “Hydantoin derivatives for use as hypoglycemic and/or hypolipidemic agents” (MOCHIDA PHARMACEUTICAL CO., LTD., priority 1990, dated 1991)
“Also recorded” adds a separate entry of the source.

Legend:
normal rats = assay: Hypoglycemic effects in normal rats; assay type: in vivo, male Wistar rats
Description: Groups of 5 male Wistar rats, after being fasted for 4 hrs, were orally administered with compound 20 or 23 of the present invention or gliclazide. Blood samples were collected from the orbital vein before, 1 hr and 6 hrs after the administration. Serum glucose levels were determined by the enzymatic method with an autoanalyser (Cobas Fara ® , Roche).

[1] = system: streptozotocin-diabetic rats; assay: Ketone body lowering effects in streptozotocin-diabetic rats; assay type: in vivo; conditions: STZ-diabetic rats; for Lowering rate of serum total ketone body (%): 100 mg/kg orally for 2 weeks, blood 6 hrs after the last administration
Description: (§1) Diabetic rats were produced according to the method of Junod et al. (A. Junod et al., J. Clin. Invest., 48, 2129 (1969)). Briefly, male Wistar rats were given 26.5 mg/kg of streptozotocin (STZ) intravenously. Four days later, the rats with serum glucose levels of between 400 and 500 mg/dl were used. After being fasted for 4 hrs, groups of 5 diabetic rats were orally administered with the compounds of the present invention or gliclazide in a dose of 100 mg/kg. Blood samples were collected from the orbital vein before and 6 hrs after the administration. Serum glucose levels were determined by the enzymatic methods with an autoanalyzer (Cobas Fara ® , Roche).
(§2) Diabetic rats were produced according to the method described previously. Groups of 5 diabetic rats were orally administered with compound 20 or 23 of the present invention for 2 weeks. The rats were deprived of food 4 hrs before the last administration, and 6 hrs after the last administration, blood samples were collected from the orbital vein. Serum total ketone body (KB) levels were determined by the enzymatic method with an autoanalyzer (Cobas Fara ® , Roche). In this experiment, serum total ketone body levels in streptozotocin - diabetic rats increased by 92 % of normal rats in the mean value.

[2] = system: streptozotocin - diabetic rats; assay: Hypolipidemic effects in streptozotocin-diabetic rats; assay type: in vivo; conditions: STZ-diabetic rats; for Lowering rate of serum lipids (%) CHOL / Lowering rate of serum lipids (%) NEFA / Lowering rate of serum lipids (%) TG: 100 mg/kg orally for 2 weeks; for Lowering rate of serum lipids (%) CHOL: serum cholesterol 6 hrs after the last administration; for Lowering rate of serum lipids (%) NEFA: serum non-esterified fatty acid 6 hrs after the last administration; for Lowering rate of serum lipids (%) TG: serum triglyceride 6 hrs after the last administration
Description: as §1
as §2, with “invention at a dose of 100 mg/kg” for “invention”, “triglyceride (TG), non - esterified fatty acid (NEFA) and cholesterol (CHOL)” for “total ketone body (KB)”, “experiment, each parameters of” for “experiment,”, “lipids” for “total ketone body levels”, “40” for “92”

ICR strain mice = assay: Acute toxicity in mice; assay type: in vivo; conditions: oral dose of 1 g/kg, one-week period after the administration
Description: Hydantoin derivatives of the present invention were examined for acute toxicity.

[3] = system: streptozotocin-diabetic rats; assay: Hypoglycemic effects in streptozotocin-diabetic rats; assay type: in vivo, male Wistar rats
Description: as §1, with “Four” for “Diabetic rats were produced according to the method of Junod et al. (A. Junod et al., J. Clin. Invest., 48, 2129 (1969)). Briefly, male Wistar rats were given 26.5 mg/kg of streptozotocin (STZ) intravenously. Four”

[4] = 100 mg/kg p.o., 1 hour after administration
[5] = 100 mg/kg p.o., 6 hours after administration

Molecule: O=C1CN(S(=O)(=O)c2oc3ccccc3c2Br)C(=O)N1 [Compound 20, 1-(3-bromobenzo[b]furan-2-ylsulfonyl)hydantoin]
- influence on serum glucose level of normal rats (in words) (normal rats): lesser influences
- Lowering rate of serum glucose (%) (normal rats; [4]): 13%
- Lowering rate of serum glucose (%) (normal rats; [5]): 6%
- lowering of serum total ketone body levels (in words) [1]: lowering activity
- Lowering rate of serum total ketone body (%) [1]: 50%
- lowering of serum triglyceride, non - esterified fatty acid and cholesterol levels (in words) [2]: lowering activities
- Lowering rate of serum lipids (%) CHOL [2]: 31%
- Lowering rate of serum lipids (%) NEFA [2]: 35%
- Lowering rate of serum lipids (%) TG [2]: 36%
- acute toxicity (ICR strain mice): no change was observed

Molecule: O=C1CN(S(=O)(=O)c2cc3ccccc3o2)C(=O)N1 [Compound 9, 1-(benzo[b]furan-2-ylsulfonyl)hydantoin]
- acute toxicity (ICR strain mice): no change was observed

Molecule: O=C1CN(S(=O)(=O)c2cc(Cl)sc2Cl)C(=O)N1 [Compound 16, 1-(2,5-dichlorothien-3-ylsulfonyl)hydantoin]
- acute toxicity (ICR strain mice): no change was observed

Molecule: Cc1ccc(S(=O)(=O)NC(=O)NN2CC3CCCC3C2)cc1 (centres unmarked) [Compound A, gliclazide, reference compound]
- influence on serum glucose level of normal rats (in words) (normal rats): significantly lowered; also recorded: remarkable hypoglycemic activity
- Lowering rate of serum glucose (%) (normal rats; 10 mg/kg p.o., 1 hour after administration): 57%
- Lowering rate of serum glucose (%) (normal rats; 10 mg/kg p.o., 6 hours after administration): 1%
- hypoglycemic activity (in words) ([3]; STZ-diabetic rats / experimental animal model of diabetes mellitus): less potent hypoglycemic activity than all compounds of the present invention

Molecule: O=C1CN(S(=O)(=O)c2oc3ccccc3c2Cl)C(=O)N1 [Compound 23, 1-(3-chlorobenzo[b]furan-2-ylsulfonyl)hydantoin]
- influence on serum glucose level of normal rats (in words) (normal rats): lesser influences
- Lowering rate of serum glucose (%) (normal rats; [4]): 9%
- Lowering rate of serum glucose (%) (normal rats; [5]): 0%
- lowering of serum total ketone body levels (in words) [1]: lowering activity
- Lowering rate of serum total ketone body (%) [1]: 43%
- lowering of serum triglyceride, non - esterified fatty acid and cholesterol levels (in words) [2]: lowering activities
- Lowering rate of serum lipids (%) CHOL [2]: 30%
- Lowering rate of serum lipids (%) NEFA [2]: 18%
- Lowering rate of serum lipids (%) TG [2]: 43%
- acute toxicity (ICR strain mice): no change was observed

Molecule: 1-(benzo[b]isothiazol-3-ylsulfonyl)hydantoin [Compound 15]
- Lowering rate of serum glucose (%) ([3]; STZ-diabetic rats fasted 4 hrs, 100 mg/kg orally, 6 hrs after administration vs before): 23.6%

Molecule: O=C1CN(S(=O)(=O)c2cc3ccccc3s2)C(=O)N1 [Compound 8, 1-(benzo[b]thien-2-ylsulfonyl)hydantoin]
- acute toxicity (ICR strain mice): no change was observed

Molecule: O=C1CN(S(=O)(=O)c2cc3ccc(Cl)cc3cc2Cl)C(=O)N1 [Compound 2, 1-(3,6-dichloronaphthalen-2-ylsulfonyl)hydantoin]
- acute toxicity (ICR strain mice): no change was observed
